Measurements taken from patent publication US11541055B2, “Inhibitors of human immunodeficiency virus replication” (ViiV Healthcare UK (No. 5) LIMITED, priority 2018, dated 2023).

Columns and labels:
[1] = system: recombinant NL4-3 virus (Renilla luciferase) in MT-2 cells; assay: HIV cell culture assay (antiviral activity, luciferase readout); type: cell-based; conditions: Renilla, NL43
How it was run: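 Antiviral EC50 was derived via the median effect equation from luciferase signal. The signal came from MT-2 cultures infected for 4–5 days with a nef-deleted, Renilla luciferase-expressing NL4-3 reporter virus (made in 293T cells) in the presence of compound dilutions.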

[2] = Compound cytotoxicity, XTT-based colorimetric assay; type: cell-based; conditions: human; uninfected MT2 cells, day 4, XTT
How it was run: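 Run under the antiviral-assay protocol but without virus. Viability was read on day 4 and CC50 values were derived from the readout.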

## Cn1nc(NS(C)(=O)=O)c2c(Cl)ccc(-n3c([C@H](Cc4cc(F)cc(F)c4)NC(=O)Cn4nc(C(F)F)c5c4C(F)(F)[C@@H]4C[C@H]54)nc4cc(-c5cccc(C6CC6)n5)ccc4c3=O)c21 (atropisomer, axis not shown; (P)) [Example 41, N—((S)-1-((3P)-3-(4-chloro-1-methyl-3-(methylsulfonamido)-1H-indazol-7-yl)-7-(6-cyclopropylpyridin-2-yl)-4-oxo-3,4-dihydroquinazolin-2-yl)-2-(3,5-difluorophenyl)ethyl)-2-((3bS,4aR)-3-(difluoromethyl)-5,5-difluoro-3b,4,4a,5-tetrahydro-1H-cyclopropa[3,4]cyclopenta[1,2-c]pyrazol-1-yl)acetamide]
[1]
  EC50: 0.33 nM
[2]
  CC50 at 4 days: > 500 nM

## Cn1nc(NS(C)(=O)=O)c2c(Cl)ccc(-n3c([C@H](Cc4cc(F)cc(F)c4)NC(=O)Cn4nc(C(F)F)c5c4C(F)(F)[C@@H]4C[C@H]54)nc4cc(-c5ccccc5S(=O)(=O)C(C)(C)C)ccc4c3=O)c21 [Example 32, N—((S)-1-(7-(2-(tert-butylsulfonyl)phenyl)-(3P)-3-(4-chloro-1-methyl-3-(methylsulfonamido)-1H-indazol-7-yl)-4-oxo-3,4-dihydroquinazolin-2-yl)-2-(3,5-difluorophenyl)ethyl)-2-((3bS,4aR)-3-(difluoromethyl)-5,5-difluoro-3b,4,4a,5-tetrahydro-1H-cyclopropa[3,4]cyclopenta[1,2-c]pyrazol-1-yl)acetamide]
[1]
  EC50: 0.11 nM
[2]
  CC50 at 4 days: > 500 nM

## Cn1nc(NS(C)(=O)=O)c2c(Cl)ccc(-n3c([C@H](Cc4cc(F)cc(F)c4)NC(=O)Cn4nc(C(F)F)c5c4C(F)(F)[C@@H]4C[C@H]54)nc4cc(-c5nccc(C(F)F)n5)ccc4c3=O)c21 (atropisomer, axis not shown; (P)) [Example 56, N—((S)-1-((3P)-3-(4-chloro-1-methyl-3-(methylsulfonamido)-1H-indazol-7-yl)-7-(4-(difluoromethyl)pyrimidin-2-yl)-4-oxo-3,4-dihydroquinazolin-2-yl)-2-(3,5-difluorophenyl)ethyl)-2-((3bS,4aR)-3-(difluoromethyl)-5,5-difluoro-3b,4,4a,5-tetrahydro-1H-cyclopropa[3,4]cyclopenta[1,2-c]pyrazol-1-yl)acetamide]
[1]
  EC50: 0.056 nM
[2]
  CC50 at 4 days: > 500 nM

## Cc1cc(C)nc(-c2ccc3c(=O)n(-c4ccc(Cl)c5c(NS(=O)(=O)C6CC6)nn(CC(F)F)c45)c([C@H](Cc4cc(F)cc(F)c4)NC(=O)Cn4nc(C(F)F)c5c4C(F)(F)[C@@H]4C[C@H]54)nc3c2)c1 (atropisomer, axis not shown; (P)) [Example 83, N—((S)-1-((3P)-3-(4-chloro-3-(cyclopropanesulfonamido)-1-(2,2-difluoroethyl)-1H-indazol-7-yl)-7-(4,6-dimethylpyridin-2-yl)-4-oxo-3,4-dihydroquinazolin-2-yl)-2-(3,5-difluorophenyl)ethyl)-2-((3bS,4aR)-3-(difluoromethyl)-5,5-difluoro-3b,4,4a,5-tetrahydro-1H-cyclopropa[3,4]cyclopenta[1,2-c]pyrazol-1-yl)acetamide]
[1]
  EC50: 0.44 nM
[2]
  CC50 at 4 days: > 500 nM

## Cc1cc(-c2ccc3c(=O)n(-c4ccc(Cl)c5c(NS(C)(=O)=O)nn(C)c45)c([C@H](Cc4cc(F)cc(F)c4)NC(=O)Cn4nc(C(F)F)c5c4C(F)(F)[C@@H]4C[C@H]54)nc3c2)nc(C)n1 (atropisomer, axis not shown; (P)) [Example 44, N—((S)-1-((3P)-3-(4-chloro-1-methyl-3-(methylsulfonamido)-1H-indazol-7-yl)-7-(2,6-dimethylpyrimidin-4-yl)-4-oxo-3,4-dihydroquinazolin-2-yl)-2-(3,5-difluorophenyl)ethyl)-2-((3bS,4aR)-3-(difluoromethyl)-5,5-difluoro-3b,4,4a,5-tetrahydro-1H-cyclopropa[3,4]cyclopenta[1,2-c]pyrazol-1-yl)acetamide]
[1]
  EC50: 0.04 nM
[2]
  CC50 at 4 days: > 500 nM
